US20230364175A1 (priority 2022, published 2023)
≈ marks a conversion by molar mass, not a printed value. Read-outs that look alike come from different tables or passages of the source.

Tests used:
physchem = assay type: physicochemical
Text: (§1) In some embodiments, the one or more organic compounds includes cyclodextrin or a cyclodextrin derivative. In some embodiments, the one or more organic compounds includes hydroxypropyl-beta-cyclodextrin (HPBCD). In some embodiments, HPBCD is provided in a concentration ranging from about 0.49 to about 0.55 wt. %, including, for example, 0.50%, 0.51%, 0.52%, 0.53%, and 0.54%. […] The low solubility of melatonin can lead to limited absorption and bioavailability. With the addition of HPBCD, the solubility of melatonin is improved to about 10 mg/mL. In an aqueous solution in which HPBCD is present at a concentration ranging from about 0.49 to about 0.55 wt. %, HPBCD monomers have a hydrodynamic size of 10 nm and aggregates of HPBCD form up to 100 nm in diameter (measured via dynamic light scattering).

log P of melatonin = assay type: physicochemical
Text: as §1

For `COc1ccc2[nH]cc(CCNC(C)=O)c2c1` [melatonin], the solubility (physchem) was about 100 µg/mL (≈ 0.431 mM), the solubility (physchem; aqueous with cosolvent or surfactant or cyclodextrin) was about 10000 µg/mL (≈ 43.1 mM) and the logP (log P of melatonin) was 1.6.
